Measurements: US20240270715A1, “INHIBITORS OF TRANSGLUTAMINASES” (ZEDIRA GMBH, priority 2021, published 2024)

Columns and labels:
[1] = Log D by shake flask method (octanol / PBS pH 7.4, HPLC); type: physicochemical; details: octanol / PBS pH 7.4, shake flask; read-out: logD
Experimental: In order to classify the inventive compounds according to their lipophilicity, Log D values (distribution coefficient) were determined by means of the well-established shake flask method, measuring the partition of a compound between an octanol and phosphate-buffered saline (PBS, pH 7.4) by HPLC.
Compounds with a moderate lipophilicity (Log D values from 0 to 3) are usually advantaged for oral absorption, being in balance between solubility and permeability. However, sophisticated formulation of a compound might improve oral bioavailability for highly lipophilic compounds.

[2] = Caco-2 permeability assay (CacoReady kit); type: in vitro ADME; details: human
Experimental: Permeability coefficients (Papp values) were obtained from Caco-2 barrier studies predicting oral/intestinal bioavailability of the tested compounds. The assays were performed by using CacoReady™ ready-to-use kits from ReadyCell according to the manufacturers protocol.

[3] = biological target: T1, recombinant human transglutaminase 2 (Homo sapiens, UniProt P21980); experiment: Transglutaminase assay: incorporation of dansylcadaverine into dimethylcasein (DCC-assay); type: biochemical; details: recombinant human TG2 10 nM, dansylcadaverine/dimethylcasein; read-out: IC50 TG2
T1 sequence (P21980 1-687): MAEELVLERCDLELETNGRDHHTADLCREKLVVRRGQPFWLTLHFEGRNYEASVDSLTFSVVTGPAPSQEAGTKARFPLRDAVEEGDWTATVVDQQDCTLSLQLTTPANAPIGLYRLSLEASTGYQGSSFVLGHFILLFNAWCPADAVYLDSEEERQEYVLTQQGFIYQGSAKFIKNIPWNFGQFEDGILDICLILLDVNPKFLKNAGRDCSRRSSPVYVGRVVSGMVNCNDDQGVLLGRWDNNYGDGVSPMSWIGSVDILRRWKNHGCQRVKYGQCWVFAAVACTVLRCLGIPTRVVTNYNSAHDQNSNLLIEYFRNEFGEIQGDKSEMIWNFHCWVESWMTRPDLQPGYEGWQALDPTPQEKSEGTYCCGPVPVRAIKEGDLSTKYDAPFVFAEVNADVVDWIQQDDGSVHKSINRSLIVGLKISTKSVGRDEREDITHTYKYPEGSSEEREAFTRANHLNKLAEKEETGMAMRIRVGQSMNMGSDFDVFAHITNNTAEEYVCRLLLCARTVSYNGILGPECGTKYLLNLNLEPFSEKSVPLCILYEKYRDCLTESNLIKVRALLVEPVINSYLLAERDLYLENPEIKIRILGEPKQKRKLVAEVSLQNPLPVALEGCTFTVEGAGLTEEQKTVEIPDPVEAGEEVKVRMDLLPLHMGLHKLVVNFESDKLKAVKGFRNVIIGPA
Experimental: To illustrate the advantage of branched alkyl moieties over aromatic moieties, we refer to reference compounds Ref. 2 (ZED1227, U.S. Pat. No. 9,434,763 B2) and Ref. 3 (A8, ZED1047). Inhibition data were determined using the classical fluorescent transamidation assay (dansylcadaverine incorporation into methylated casein, DCC-assay) as described [Büchold, C.; Hils, M.; Gerlach, U.; Weber, J.; Pelzer, C.; Heil, A.; Aeschlimann, D.; Pasternack, R. Features of ZED1227: The First-In-Class Tissue Transglutaminase Inhibitor Undergoing Clinical Evaluation for the Treatment of Celiac Disease. Cells 2022, 11, 1667. https://doi.org/10.3390/cells11101667]. Casein is one of the best known high molecular weight (24 kDa) protein substrates for transglutaminases. Please note, the IC50 value of Ref. 3 (A8) published in U.S. Pat. No. 9,434,763 B2 cannot be compared to the present data, relying on a fluorogenic isopeptidase assay.
To this extent, inhibition data were determined using the classical fluorescent transamidation assay (dansylcadaverine incorporation into methylated casein, DCC-assay) as described in Büchold et al. [Büchold, C.; Hils, M.; Gerlach, U.; Weber, J.; Pelzer, C.; Heil, A.; Aeschlimann, D.; Pasternack, R. Features of ZED1227: The First-In-Class Tissue Transglutaminase Inhibitor Undergoing Clinical Evaluation for the Treatment of Celiac Disease. Cells 2022, 11, 1667. https://doi.org/10.3390/cells11101667]. Casein is one of the best known high molecular weight (24 kDa) protein substrates for transglutaminases. Inhibition data of the inventive compounds was compared with inhibition of compounds disclosed in U.S. Pat. No. 9,434,763 B2, particularly, compound A8, which is denoted herein as Reference 3. It is noteworthy that the IC50 values of compounds A8 published in U.S. Pat. No. 9,434,763 B2 and E16 from U.S. Pat. No. 11,072,634 B2 cannot be compared to the present data, relying on a fluorogenic isopeptidase assay.
For the determination of potency of inhibitors against tissue transglutaminase, the incorporation of dansylcadaverine into dimethylcasein (Zedira product T036, Lorand et al., Anal Biochem, 1971, 44:221-31) was measured using recombinant human transglutaminase 2 (Zedira Product T022).
The tissue transglutaminase is diluted in buffer (50 mM Tris-HCl, 7.5 mM CaCl2, 150 mM NaCl, pH=7.4). The final concentration of TG2 in the assay is 10 nM.
A 10 mM inhibitor stock solution is prepared in DMSO, and from this a serial 1:2-fold dilution series is prepared also in DMSO. Each of the initial dilutions is subsequently diluted 1:50-fold with buffer (50 mM Tris-HCl, 7.5 mM CaCl2, 150 mM NaCl, pH=7.4) to yield the final working dilutions containing 2% (v/v) DMSO. 15 μl of inhibitor working dilution are added per well of a 96 well microtiter plate. As control, 15 μl of a 2% (v/v) DMSO solution prepared using the buffer mentioned above are added per well.
Immediately before starting the assay, 600 μl transglutaminase working solution are added to 11.4 ml assay buffer (50 mM Tris-HCl, 10 mM CaCl2, 10 mM glutathione, 2.5% glycerol, 16.7 μM dansylcadaverine, 4 μM N,N-dimethylcasein, 200 mM NaCl, pH=8.0). 285 μl of this reaction mix are added per well containing the inhibitor.
Increase in fluorescence is measured using λex=330 nm and λemG=500 nm at […] for 30 min. A slope of the increase in fluorescence between 20 and 30 min is calculated for determination of the IC50 value (inhibitor concentration at which 50% of the initial activity is blocked).
Analysis of enzymatic activity is performed by calculation of the slope of an increase in fluorescence intensity. IC50 values are calculated by plotting the enzymatic activity (as percentage from control containing 2% DMSO instead of inhibitor) against the inhibitor concentration. IC50 is defined as the inhibitor concentration blocking 50% of initial enzyme activity.

| SMILES | logD [1] | Papp [2] | IC50 [3] |
| --- | --- | --- | --- |
| CCNC(=O)C(=O)CC[C@H](NC(=O)c1cncn1C)C(=O)Nc1cccn(CC(=O)NC23CC4CC(C2)CC(C(F)(F)F)(C4)C3)c1=O [Compound I-6, (S)-N1-ethyl-N6-(1-(2-(3-trifluoromethyladamantane-1-amino)-2-oxoethyl)-2-oxo-1,2-dihydropyridin-3-yl)-5-(1-methyl-1H-imidazole-5-carboxamido)-2-oxohexanediamide] | < 1 | < 1 ×10⁻⁶ cm/s | 0.15 to 0.6 µM |
| CCNC(=O)C(=O)CC[C@H](NC(=O)c1cnc(Cl)n1C)C(=O)Nc1cccn(CC(=O)NC23CC4(C)CC(C)(CC(C)(C4)C2)C3)c1=O [Compound I-29, (S)-2-(2-chloro-1-methyl-1H-imidazole-5-carboxamido)-N6-ethyl-N1-(1-(2-(3,5,7-trimethyl-1-adamantylamino)-2-oxoethyl)-2-oxo-1,2-dihydropyridin-3-yl)-5-oxohexanediamide] | 1 to 3 | < 1 ×10⁻⁶ cm/s | < 0.15 µM |
| CCNC(=O)C(=O)CC[C@H](NC(=O)c1ncns1)C(=O)Nc1cccn(CC(=O)NC23CC(C2)C3)c1=O [Compound I-118, (S)-N1-(1-(2-(bicyclo[1.1.1]pentan-1-ylamino)-2-oxoethyl)-2-oxo-1,2-dihydropyridin-3-yl)-N6-ethyl-5-oxo-2-(1,2,4-thiadiazole-5-carboxamido)hexanediamide] | < 1 | < 1 ×10⁻⁶ cm/s | 0.15 to 0.6 µM |
| CCNC(=O)C(=O)CC[C@H](NC(=O)c1nc(Cl)sc1Cl)C(=O)Nc1cccn(CC(=O)NC2C3CC4CC(C3)CC2C4)c1=O (stereo partly drawn) [Compound I-48, (S)-2-(2,5-dichlorothiazole-4-carboxamido)-N6-ethyl-N1-(1-(2-(2-adamantylamino)-2-oxoethyl)-2-oxo-1,2-dihydropyridin-3-yl)-5-oxohexanediamide] | 1 to 3 | 1 to 10 ×10⁻⁶ cm/s | 0.15 to 0.6 µM |
| CCNC(=O)C(=O)CC[C@H](NC(=O)c1sc(-c2ccccc2)nc1C)C(=O)Nc1cccn(CC(=O)NC2C3CC4CC(C3)CC2C4)c1=O (stereo partly drawn) [Compound I-42, (S)-N1-ethyl-N6-(1-(2-(2-adamantylamino)-2-oxoethyl)-2-oxo-1,2-dihydropyridin-3-yl)-5-(4-methyl-2-phenylthiazole-5-carboxamido)-2-oxohexanediamide] | 3 to 5 | 1 to 10 ×10⁻⁶ cm/s | 0.15 to 0.6 µM |
| CCNC(=O)C(=O)CC[C@H](NC(=O)c1cn(CC(C)C)cn1)C(=O)Nc1cccn(CC(=O)NC23CC4CC(CC(CC)(C4)C2)C3)c1=O [Compound I-18, (S)-N1-ethyl-5-(1-isobutyl-1H-imidazole-4-carboxamido)-N6-(1-(2-(3-ethyladamantane-1-amino)-2-oxoethyl)-2-oxo-1,2-dihydropyridin-3-yl)-2-oxohexanediamide] | 3 to 5 | < 1 ×10⁻⁶ cm/s | 0.6 to 3.5 µM |
| CCNC(=O)C(=O)CC[C@H](NC(=O)c1nc2ccccc2s1)C(=O)Nc1cccn(CC(=O)N[C@@H]2C[C@@H]3CC[C@H]2C3)c1=O [Compound I-97, (S)-2-(benzo[d]thiazole-2-carboxamido)-N1-(1-(2-((1S,2R,4R)-bicyclo[2.2.1]heptan-2-ylamino)-2-oxoethyl)-2-oxo-1,2-dihydropyridin-3-yl)-N6-ethyl-5-oxohexanediamide] | 1 to 3 | 1 to 10 ×10⁻⁶ cm/s | 0.15 to 0.6 µM |
| CCNC(=O)C(=O)CC[C@H](NC(=O)c1cc2ccccc2nn1)C(=O)Nc1cccn(CC(=O)NC23CC(C2)C3)c1=O [Compound I-100, (S)-N1-(1-(2-(bicyclo[1.1.1]pentan-1-ylamino)-2-oxoethyl)-2-oxo-1,2-dihydropyridin-3-yl)-2-(cinnoline-3-carboxamido)-N6-ethyl-5-oxohexanediamide] | < 1 | < 1 ×10⁻⁶ cm/s | 0.6 to 3.5 µM |
| CCNC(=O)C(=O)CC[C@H](NC(=O)c1nccn1C)C(=O)Nc1cccn(CC(=O)NC23CC4CC(C)(CC(C)(C4)C2)C3)c1=O [Compound I-23, (S)-N1-ethyl-N6-(1-(2-(3,5-dimethyladamantane-1-amino)-2-oxoethyl)-2-oxo-1,2-dihydropyridin-3-yl)-5-(1-methyl-1H-imidazole-2-carboxamido)-2-oxohexanediamide] | 1 to 3 | < 1 ×10⁻⁶ cm/s | 0.6 to 3.5 µM |
| CCNC(=O)C(=O)CC[C@H](NC(=O)c1cc(Cl)sc1Cl)C(=O)Nc1cccn(CC(=O)NC2C3CC4CC(C3)CC2C4)c1=O (stereo partly drawn) [Compound I-46, (S)-2-(2,5-dichlorothiophene-3-carboxamido)-N6-ethyl-N1-(1-(2-(2-adamantylamino)-2-oxoethyl)-2-oxo-1,2-dihydropyridin-3-yl)-5-oxohexanediamide] | 3 to 5 | 1 to 10 ×10⁻⁶ cm/s | < 0.15 µM |
| CCNC(=O)C(=O)CC[C@H](NC(=O)c1oc2ccccc2c1C)C(=O)Nc1cccn(CC(=O)N[C@@H]2C[C@H]3CC[C@@H]2C3)c1=O [Compound I-70, (S)-N1-(1-(2-((1R,2R,4S)-bicyclo[2.2.1]heptan-2-ylamino)-2-oxoethyl)-2-oxo-1,2-dihydropyridin-3-yl)-N6-ethyl-2-(3-methylbenzofuran-2-carboxamido)-5-oxohexanediamide] | 1 to 3 | 1 to 10 ×10⁻⁶ cm/s | < 0.15 µM |
| CCNC(=O)C(=O)CC[C@H](NC(=O)c1c(C)ncn1C)C(=O)Nc1cccn(CC(=O)NC23CC4CC(CC(CC)(C4)C2)C3)c1=O [Compound I-17, (S)-2-(1,4-dimethyl-1H-imidazole-5-carboxamido)-N6-ethyl-N1-(1-(2-(3-ethyladamantane-1-amino)-2-oxoethyl)-2-oxo-1,2-dihydropyridin-3-yl)-5-oxohexanediamide] | 1 to 3 | < 1 ×10⁻⁶ cm/s | 0.6 to 3.5 µM |
